{"source": "PubChem BioAssay (NCI)", "experiment_in_all_cases": "inhibition of tumour cell growth, NCI panel, 48 h", "key": {"MCF7 breast": {"system": "MCF7 breast"}, "NCI-H522 lung": {"system": "NCI-H522 lung"}, "OVCAR-5 ovarian": {"system": "OVCAR-5 ovarian"}, "LOX IMVI melanoma": {"system": "LOX IMVI melanoma"}, "SW-620 colon": {"system": "SW-620 colon"}, "SR leukemia": {"system": "SR leukemia"}, "BT-549 breast": {"system": "BT-549 breast"}, "A498 renal": {"system": "A498 renal"}, "EKVX NSCLC": {"system": "EKVX NSCLC"}, "NCI-H460 lung": {"system": "NCI-H460 lung"}, "HS 578T breast": {"system": "HS 578T breast"}, "NCI-H226 lung": {"system": "NCI-H226 lung"}, "SK-MEL-5 melanoma": {"system": "SK-MEL-5 melanoma"}, "HL-60(TB) leukemia": {"system": "HL-60(TB) leukemia"}, "U251 CNS": {"system": "U251 CNS"}, "UACC-62 melanoma": {"system": "UACC-62 melanoma"}, "DU-145 prostate": {"system": "DU-145 prostate"}, "SK-MEL-28 melanoma": {"system": "SK-MEL-28 melanoma"}, "OVCAR-3 ovarian": {"system": "OVCAR-3 ovarian"}, "MOLT-4 leukemia": {"system": "MOLT-4 leukemia"}, "MDA-MB-468 breast": {"system": "MDA-MB-468 breast"}, "PC-3 prostate": {"system": "PC-3 prostate"}, "T-47D breast": {"system": "T-47D breast"}, "KM12 colon": {"system": "KM12 colon"}, "IGROV1 ovarian": {"system": "IGROV1 ovarian"}, "SK-OV-3 ovarian": {"system": "SK-OV-3 ovarian"}, "OVCAR-4 ovarian": {"system": "OVCAR-4 ovarian"}, "HCT-116 colon": {"system": "HCT-116 colon"}}, "note": "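Assay format: 96-well plates, 48-hour exposure. GI50 marks 50% less growth. TGI: total growth inhibition.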", "data": [{"compound": "O=C1Nc2ccc(Cl)cc2/C1=C/c1cccc(OCc2ccccn2)c1", "values": [{"measurement": "GI50", "setting": "MCF7 breast", "value": 7.15, "unit": "µM"}, {"measurement": "TGI", "setting": "MCF7 breast", "value": 20.7, "unit": "µM"}, {"measurement": "GI50", "setting": "NCI-H522 lung", "value": 14.6, "unit": "µM"}, {"measurement": "TGI", "setting": "NCI-H522 lung", "value": 29.9, "unit": "µM"}, {"measurement": "GI50", "setting": "OVCAR-5 ovarian", "value": 15.9, "unit": "µM"}, {"measurement": "TGI", "setting": "OVCAR-5 ovarian", "value": 30.4, "unit": "µM"}, {"measurement": "GI50", "setting": "LOX IMVI melanoma", "value": 13.3, "unit": "µM"}, {"measurement": "TGI", "setting": "LOX IMVI melanoma", "value": 28.2, "unit": "µM"}, {"measurement": "GI50", "setting": "SW-620 colon", "value": 17.5, "unit": "µM"}, {"measurement": "TGI", "setting": "SW-620 colon", "value": 34.3, "unit": "µM"}, {"measurement": "GI50", "setting": "SR leukemia", "value": 13, "unit": "µM"}, {"measurement": "TGI", "setting": "SR leukemia", "value": 41.9, "unit": "µM"}, {"measurement": "GI50", "setting": "BT-549 breast", "value": 14.1, "unit": "µM"}, {"measurement": "TGI", "setting": "BT-549 breast", "value": 27.7, "unit": "µM"}, {"measurement": "GI50", "setting": "A498 renal", "value": 18.2, "unit": "µM"}, {"measurement": "TGI", "setting": "A498 renal", "value": 32.7, "unit": "µM"}, {"measurement": "GI50", "setting": "EKVX NSCLC", "value": 8.43, "unit": "µM"}, {"measurement": "TGI", "setting": "EKVX NSCLC", "value": 21.1, "unit": "µM"}, {"measurement": "GI50", "setting": "NCI-H460 lung", "value": 18, "unit": "µM"}, {"measurement": "TGI", "setting": "NCI-H460 lung", "value": 34.5, "unit": "µM"}, {"measurement": "GI50", "setting": "HS 578T breast", "value": 17.7, "unit": "µM"}, {"measurement": "TGI", "setting": "HS 578T breast", "value": 45.7, "unit": "µM"}, {"measurement": "GI50", "setting": "NCI-H226 lung", "value": 16.3, "unit": "µM"}, {"measurement": "TGI", "setting": "NCI-H226 lung", "value": 38.5, "unit": "µM"}, {"measurement": "GI50", "setting": "SK-MEL-5 melanoma", "value": 17, "unit": "µM"}, {"measurement": "TGI", "setting": "SK-MEL-5 melanoma", "value": 30.7, "unit": "µM"}, {"measurement": "GI50", "setting": "HL-60(TB) leukemia", "value": 19.2, "unit": "µM"}, {"measurement": "TGI", "setting": "HL-60(TB) leukemia", "value": 52.5, "unit": "µM"}, {"measurement": "GI50", "setting": "U251 CNS", "value": 14.6, "unit": "µM"}, {"measurement": "TGI", "setting": "U251 CNS", "value": 28.9, "unit": "µM"}, {"measurement": "GI50", "setting": "UACC-62 melanoma", "value": 11.9, "unit": "µM"}, {"measurement": "TGI", "setting": "UACC-62 melanoma", "value": 24.4, "unit": "µM"}, {"measurement": "GI50", "setting": "DU-145 prostate", "value": 17.8, "unit": "µM"}, {"measurement": "TGI", "setting": "DU-145 prostate", "value": 31.8, "unit": "µM"}, {"measurement": "GI50", "setting": "SK-MEL-28 melanoma", "value": 16.8, "unit": "µM"}, {"measurement": "TGI", "setting": "SK-MEL-28 melanoma", "value": 30.5, "unit": "µM"}, {"measurement": "GI50", "setting": "OVCAR-3 ovarian", "value": 16.1, "unit": "µM"}, {"measurement": "TGI", "setting": "OVCAR-3 ovarian", "value": 30.1, "unit": "µM"}, {"measurement": "GI50", "setting": "MOLT-4 leukemia", "value": 12.4, "unit": "µM"}, {"measurement": "TGI", "setting": "MOLT-4 leukemia", "value": 36.8, "unit": "µM"}, {"measurement": "GI50", "setting": "MDA-MB-468 breast", "value": 11.9, "unit": "µM"}, {"measurement": "TGI", "setting": "MDA-MB-468 breast", "value": 25.5, "unit": "µM"}, {"measurement": "GI50", "setting": "PC-3 prostate", "value": 19.4, "unit": "µM"}, {"measurement": "TGI", "setting": "PC-3 prostate", "value": 64.4, "unit": "µM"}, {"measurement": "GI50", "setting": "T-47D breast", "value": 13.4, "unit": "µM"}, {"measurement": "TGI", "setting": "T-47D breast", "value": 30.6, "unit": "µM"}, {"measurement": "GI50", "setting": "KM12 colon", "value": 18.1, "unit": "µM"}, {"measurement": "TGI", "setting": "KM12 colon", "value": 33.8, "unit": "µM"}, {"measurement": "GI50", "setting": "IGROV1 ovarian", "value": 15.7, "unit": "µM"}, {"measurement": "TGI", "setting": "IGROV1 ovarian", "value": 31.2, "unit": "µM"}, {"measurement": "GI50", "setting": "SK-OV-3 ovarian", "value": 20.2, "unit": "µM"}, {"measurement": "TGI", "setting": "SK-OV-3 ovarian", "value": 47, "unit": "µM"}, {"measurement": "GI50", "setting": "OVCAR-4 ovarian", "value": 18.3, "unit": "µM"}, {"measurement": "TGI", "setting": "OVCAR-4 ovarian", "value": 54.1, "unit": "µM"}, {"measurement": "GI50", "setting": "HCT-116 colon", "value": 13, "unit": "µM"}]}]}
